System: DYT-TOR1A MEF EVs
Assay: Quantitative LC-MS/MS proteomics of EVs from drug-treated DYT-TOR1A MEF cultures (ritonavir, salubrinal)
Format: cell-based, mouse
Design: key to RTV Corrective Direction / RTV Corrective Direction, Grwd1 / RTV Corrective Direction, Srrm2 / RTV Corrective Direction, Rbm17 / RTV Corrective Direction, Dcaf8 / RTV Corrective Direction, Edil3 / RTV Corrective Direction, Timp3 / RTV Corrective Direction, Heatr3 / RTV Corrective Direction, Brd4 / RTV Corrective Direction, P3h4 / RTV Corrective Direction, Pacsin3 / RTV Corrective Direction, Naa50 / RTV Corrective Direction, Lpar6 / RTV Corrective Direction, Ndrg1 / RTV Corrective Direction, Kntc1 / RTV Corrective Direction, Cdk11b / RTV Corrective Direction, Sumo1 / RTV Corrective Direction, Lsm4 / RTV Corrective Direction, Hmga2 / RTV Corrective Direction, Cstf1 / RTV Corrective Direction, Tes / RTV Corrective Direction, Sbno1 / RTV Corrective Direction, Unc119b / RTV Corrective Direction, Cfdp1 / RTV Corrective Direction, Sec61b: YES = protein abundance effect opposite to DYT/WT

CC(C)c1nc(CN(C)C(=O)N[C@H](C(=O)N[C@@H](Cc2ccccc2)C[C@H](O)[C@H](Cc2ccccc2)NC(=O)OCc2cncs2)C(C)C)cs1 [ritonavir]
Absolute Cohen's d Sum (Geno + RTV), Brd4 (EV protein Brd4 (Q9ESU6)): 6.97 | DYT + RTV/DYT Cohen's d, Brd4 (EV protein Brd4 (Q9ESU6)): 3.33 | RTV Corrective Direction, Brd4 (EV protein Brd4 (Q9ESU6), DYT + RTV vs DYT): YES | Absolute Cohen's d Sum (Geno + RTV), Cdk11b (EV protein Cdk11b (P24788)): 6.07 | DYT + RTV/DYT Cohen's d, Cdk11b (EV protein Cdk11b (P24788)): 2.84 | RTV Corrective Direction, Cdk11b (EV protein Cdk11b (P24788), DYT + RTV vs DYT): YES | Absolute Cohen's d Sum (Geno + RTV), Cfdp1 (EV protein Cfdp1 (O88271)): 4.50 | DYT + RTV/DYT Cohen's d, Cfdp1 (EV protein Cfdp1 (O88271)): 1.87 | RTV Corrective Direction, Cfdp1 (EV protein Cfdp1 (O88271), DYT + RTV vs DYT): YES | Absolute Cohen's d Sum (Geno + RTV), Cstf1 (EV protein Cstf1 (Q99LC2)): 4.79 | DYT + RTV/DYT Cohen's d, Cstf1 (EV protein Cstf1 (Q99LC2)): 1.81 | RTV Corrective Direction, Cstf1 (EV protein Cstf1 (Q99LC2), DYT + RTV vs DYT): YES | Absolute Cohen's d Sum (Geno + RTV), Ctdsp1 (EV protein Ctdsp1 (P58466)): 9.37 | DYT + RTV/DYT Cohen's d, Ctdsp1 (EV protein Ctdsp1 (P58466)): −0.28 | DYT + RTV/DYT Cohen's d, Dcaf8 (EV protein Dcaf8): 3.49 | Absolute Cohen's d Sum (Geno + RTV), Dcaf8 (EV protein Dcaf8 (Q8N7N5)): 7.70 | RTV Corrective Direction, Dcaf8 (EV protein Dcaf8 (Q8N7N5), DYT + RTV vs DYT): YES | Absolute Cohen's d Sum (Geno + RTV), Dnajc7 (EV protein Dnajc7 (Q9QYI3)): 4.50 | DYT + RTV/DYT Cohen's d, Dnajc7 (EV protein Dnajc7 (Q9QYI3)): −0.67 | Absolute Cohen's d Sum (Geno + RTV), Drg1 (EV protein Drg1 (P32233)): 4.38 | DYT + RTV/DYT Cohen's d, Drg1 (EV protein Drg1 (P32233)): −1.06 | Absolute Cohen's d Sum (Geno + RTV), Edil3 (EV protein Edil3 (O35474)): 7.67 | DYT + RTV/DYT Cohen's d, Edil3 (EV protein Edil3 (O35474)): 4.51 | RTV Corrective Direction, Edil3 (EV protein Edil3 (O35474), DYT + RTV vs DYT): YES | Absolute Cohen's d Sum (Geno + RTV), Grwd1 (EV protein Grwd1 (Q810D6)): 8.06 | DYT + RTV/DYT Cohen's d, Grwd1 (EV protein Grwd1 (Q810D6)): 2.65 | RTV Corrective Direction, Grwd1 (EV protein Grwd1 (Q810D6), DYT + RTV vs DYT): YES | Absolute Cohen's d Sum (Geno + RTV), Heatr3 (EV protein Heatr3 (Q8BQM4)): 7.08 | DYT + RTV/DYT Cohen's d, Heatr3 (EV protein Heatr3 (Q8BQM4)): 3.09 | RTV Corrective Direction, Heatr3 (EV protein Heatr3 (Q8BQM4), DYT + RTV vs DYT): YES | Absolute Cohen's d Sum (Geno + RTV), Hmga2 (EV protein Hmga2 (P52927)): 5.34 | DYT + RTV/DYT Cohen's d, Hmga2 (EV protein Hmga2 (P52927)): 1.97 | RTV Corrective Direction, Hmga2 (EV protein Hmga2 (P52927), DYT + RTV vs DYT): YES | Absolute Cohen's d Sum (Geno + RTV), Kntc1 (EV protein Kntc1 (Q8C3Y4)): 6.09 | DYT + RTV/DYT Cohen's d, Kntc1 (EV protein Kntc1 (Q8C3Y4)): 2.48 | RTV Corrective Direction, Kntc1 (EV protein Kntc1 (Q8C3Y4), DYT + RTV vs DYT): YES | Absolute Cohen's d Sum (Geno + RTV), Lpar6 (EV protein Lpar6 (Q8BMC0)): 6.22 | DYT + RTV/DYT Cohen's d, Lpar6 (EV protein Lpar6 (Q8BMC0)): −3.03 | RTV Corrective Direction, Lpar6 (EV protein Lpar6 (Q8BMC0), DYT + RTV vs DYT): YES | Absolute Cohen's d Sum (Geno + RTV), Lsm4 (EV protein Lsm4 (Q9QXA5)): 5.40 | DYT + RTV/DYT Cohen's d, Lsm4 (EV protein Lsm4 (Q9QXA5)): 2.49 | RTV Corrective Direction, Lsm4 (EV protein Lsm4 (Q9QXA5), DYT + RTV vs DYT): YES | Absolute Cohen's d Sum (Geno + RTV), Maea (EV protein Maea (Q4VC33)): 3.96 | DYT + RTV/DYT Cohen's d, Maea (EV protein Maea (Q4VC33)): −0.37 | Absolute Cohen's d Sum (Geno + RTV), Myo1e (EV protein Myo1e (E9Q634)): 5.88 | DYT + RTV/DYT Cohen's d, Myo1e (EV protein Myo1e (E9Q634)): −1.46 | Absolute Cohen's d Sum (Geno + RTV), Naa50 (EV protein Naa50 (Q6PGB6)): 6.3 | DYT + RTV/DYT Cohen's d, Naa50 (EV protein Naa50 (Q6PGB6)): 1.96 | RTV Corrective Direction, Naa50 (EV protein Naa50 (Q6PGB6), DYT + RTV vs DYT): YES | Absolute Cohen's d Sum (Geno + RTV), Ndrg1 (EV protein Ndrg1 (Q62433)): 6.19 | DYT + RTV/DYT Cohen's d, Ndrg1 (EV protein Ndrg1 (Q62433)): 2.70 | RTV Corrective Direction, Ndrg1 (EV protein Ndrg1 (Q62433), DYT + RTV vs DYT): YES | Absolute Cohen's d Sum (Geno + RTV), P3h4 (EV protein P3h4 (Q8K2B0)): 6.88 | DYT + RTV/DYT Cohen's d, P3h4 (EV protein P3h4 (Q8K2B0)): 1.62 | RTV Corrective Direction, P3h4 (EV protein P3h4 (Q8K2B0), DYT + RTV vs DYT): YES | Absolute Cohen's d Sum (Geno + RTV), Pacsin3 (EV protein Pacsin3 (Q99JB8)): 6.45 | DYT + RTV/DYT Cohen's d, Pacsin3 (EV protein Pacsin3 (Q99JB8)): −3.41 | RTV Corrective Direction, Pacsin3 (EV protein Pacsin3 (Q99JB8), DYT + RTV vs DYT): YES | Absolute Cohen's d Sum (Geno + RTV), Pcdh19 (EV protein Pcdh19 (Q80TF3)): 7.74 | DYT + RTV/DYT Cohen's d, Pcdh19 (EV protein Pcdh19 (Q80TF3)): −0.30 | Absolute Cohen's d Sum (Geno + RTV), Plpp3 (EV protein Plpp3 (Q99JY8)): 4.97 | DYT + RTV/DYT Cohen's d, Plpp3 (EV protein Plpp3 (Q99JY8)): 0.51 | Absolute Cohen's d Sum (Geno + RTV), Rbm17 (EV protein Rbm17 (Q8JZX4)): 7.77 | DYT + RTV/DYT Cohen's d, Rbm17 (EV protein Rbm17 (Q8JZX4)): 2.38 | RTV Corrective Direction, Rbm17 (EV protein Rbm17 (Q8JZX4), DYT + RTV vs DYT): YES | Absolute Cohen's d Sum (Geno + RTV), Sbno1 (EV protein Sbno1 (Q689Z5)): 4.67 | DYT + RTV/DYT Cohen's d, Sbno1 (EV protein Sbno1 (Q689Z5)): 1.29 | RTV Corrective Direction, Sbno1 (EV protein Sbno1 (Q689Z5), DYT + RTV vs DYT): YES | Absolute Cohen's d Sum (Geno + RTV), Sec61b (EV protein Sec61b (Q9CQS8)): 3.57 | DYT + RTV/DYT Cohen's d, Sec61b (EV protein Sec61b (Q9CQS8)): 0.27 | RTV Corrective Direction, Sec61b (EV protein Sec61b (Q9CQS8), DYT + RTV vs DYT): YES | Absolute Cohen's d Sum (Geno + RTV), Sh3bp4 (EV protein Sh3bp4 (Q921I6)): 4.75 | DYT + RTV/DYT Cohen's d, Sh3bp4 (EV protein Sh3bp4 (Q921I6)): −0.91 | Absolute Cohen's d Sum (Geno + RTV), Srrm2 (EV protein Srrm2 (Q8BTI8)): 7.87 | DYT + RTV/DYT Cohen's d, Srrm2 (EV protein Srrm2 (Q8BTI8)): 3.51 | RTV Corrective Direction, Srrm2 (EV protein Srrm2 (Q8BTI8), DYT + RTV vs DYT): YES | Absolute Cohen's d Sum (Geno + RTV), Sumo1 (EV protein Sumo1 (P63166)): 5.99 | DYT + RTV/DYT Cohen's d, Sumo1 (EV protein Sumo1 (P63166)): 2.28 | RTV Corrective Direction, Sumo1 (EV protein Sumo1 (P63166), DYT + RTV vs DYT): YES | Absolute Cohen's d Sum (Geno + RTV), Tes (EV protein Tes (P47226)): 4.69 | DYT + RTV/DYT Cohen's d, Tes (EV protein Tes (P47226)): 0.20 | RTV Corrective Direction, Tes (EV protein Tes (P47226), DYT + RTV vs DYT): YES | Absolute Cohen's d Sum (Geno + RTV), Timp3 (EV protein Timp3 (P39876)): 7.42 | DYT + RTV/DYT Cohen's d, Timp3 (EV protein Timp3 (P39876)): −2.93 | RTV Corrective Direction, Timp3 (EV protein Timp3 (P39876), DYT + RTV vs DYT): YES | Absolute Cohen's d Sum (Geno + RTV), Tspan7 (EV protein Tspan7 (Q62283)): 7.37 | DYT + RTV/DYT Cohen's d, Tspan7 (EV protein Tspan7 (Q62283)): −2.89 | Absolute Cohen's d Sum (Geno + RTV), Unc119b (EV protein Unc119b (Q8C4B4)): 4.63 | DYT + RTV/DYT Cohen's d, Unc119b (EV protein Unc119b (Q8C4B4)): 2.22 | RTV Corrective Direction, Unc119b (EV protein Unc119b (Q8C4B4), DYT + RTV vs DYT): YES | Pearson's r between genotype and ritonavir effects on EV protein abundance (entire proteome, n=1974): −0.74 | Pearson's r between genotype and ritonavir effects on EV protein abundance (putative DYT biomarker subset, n=363): −0.78 | additional human plasma EV protein homologs modulated in a corrective direction in mouse DYT1 EV experiment (MEF), not reaching significance (p<0.05) (ritonavir): 687 | all EV proteins with log 2 fold change>0 (ritonavir 20 μM, 24 h): 1372/1974 | number of significant hits among 363 proteins relative to chance (α=0.05) (ritonavir 20 μM, 24 h): 12 times | overall effect on the DYT-TOR1A MEF EV proteome (ritonavir 20 μM, 24 h): broad corrective effect | significantly modified EV proteins with log 2 fold change>0 (ritonavir 20 μM, 24 h): 508/582 | overall effect on the DYT-TOR1A MEF EV proteome (ritonavir 20 μM, 24 h, listed as Ritonavir): proteome-wide corrective effects | hierarchical clustering of EV samples on 363 genotype biomarker proteins (ritonavir-treated DYT-TOR1A EV samples): clustered more closely with WT than DYT-TOR1A samples

Source: patent US20260266848A1, “COMPOSITIONS AND METHODS FOR DIAGNOSING AND TREATING DYSTONIA” (Duke University, priority 2023, published 2026)
